This is an account of results in US9474278B2, “Biocidal compositions and methods of use” (Dow Global Technologies LLC, priority 2011, dated 2016).

Experiment [1] deals with Candida albican, ATCC #10231. Description: 96 well micro titer plate MIC / synergy assay in SDB. The experiment is classed as cell-based. The conditions noted are these: alone or in the combination, 48 hours. The protocol:
(§1) The synergy indexes reported in the following examples are calculated using the following equation: Synergy Index=Ca/CA+Cb/CB
(§2) A synergy index (SI) of 1 indicates additivity, a synergy index of less than 1 indicates synergy, and a synergy index greater than 1 indicates antagonism.

Experiment [2] has as its system Staphylococcus aureus ATCC 6538, Enterobacter aerogenes ATCC 13048, and Escherichia coli ATCC 8739. The experiment in a line: Biocidal efficacy: minimum biocide concentration for 99.9% bacterial kill in inoculated salt solution with re-challenges. The experiment is classed as cell-based. The conditions noted are these: alone or in the combination, 37° C. The protocol:
as §1
Ca: Concentration of biocide A required to achieve a certain level of bacterial kill when used in combination with B.
CA: Concentration of biocide A required to achieve a certain level of bacterial kill when used alone.
Cb: Concentration of biocide B required to achieve a certain level of bacterial kill when used in combination with A.
CB: Concentration of biocide B required to achieve a certain level of bacterial kill when used alone.
as §2
A sterile salt solution (0.2203 g of CaCl2, 0.1847 g of MgSO4, and 0.2033 g of NaHCO3 in 1 L water) is inoculated with approximately 10^7 CFU/mL of Staphylococcus aureus ATCC 6538, Enterobacter aerogenes ATCC 13048, and Escherichia coli ATCC 8739. Aliquots of the cell suspension are then treated with THPS, BIT, and combinations of these actives at selected concentrations and incubated at 37° C. for 14 days. After incubation for 24 hours, 3 days, and 7 days, the aliquots are re-challenged with bacterial suspension of the same bacteria at a final bacterial concentration of 10^5 CFU/mL. The biocidal efficacy is measured at 2 hours and 14 days by determining the minimum biocide concentration for 99.9% bacterial kill in the aliquots. Synergy Index is then calculated. Table 1 and 2 summarize the efficacy of each biocide and their combinations at 2 hour and 14 day treatment time respectively, and the resulting Synergy Index of each combination.

Consider “tetrakis (hydroxymethyl) phosphonium sulfate [THPS]”, for which, in experiment [1] (THPS concentration), the “Minimum Inhibitory Concentration against Candida albican (ppm), THPS” value was found to be 1000 ppm. Also, the “Concentration (ppm active) for 99.9% bacterial kill in 2 hours, THPS” value in experiment [2] (THPS concentration, 2 hour treatment) was determined as 38 ppm active. Moreover, the “Concentration (ppm active) for 99.9% bacterial kill in 14 days, THPS” value in experiment [2] (THPS concentration, 14 day treatment, re-challenged at 24 hours, 3 days, 7 days) is more than 300 ppm active.

As to `Cn1sc2ccccc2c1=O` [MBIT, 2-methyl-1,2-benzisothiazolin-3-one], the “Minimum Inhibitory Concentration against Candida albican (ppm), MBIT” value in experiment [1] (MBIT concentration) was found to be 0.375 ppm.

For `O=c1[nH]sc2ccccc12` [BIT, 1,2-benzisothiazolin-3-one], the “Concentration (ppm active) for 99.9% bacterial kill in 2 hours, BIT” value in experiment [2] (BIT concentration, 2 hour treatment) was more than 300 ppm active. Besides, the “Concentration (ppm active) for 99.9% bacterial kill in 14 days, BIT” value in experiment [2] (BIT concentration, 14 day treatment, re-challenged at 24 hours, 3 days, 7 days) came out at 150 ppm active.
